Source: US20120100105A1, “AGENT AND METHOD FOR TREATING REFRACTORY CHRONIC HEPATITIS C” (MEIJI SEIKA PHARMA CO., LTD., priority 2009, published 2012)

How the values were obtained:
genotype 1b HCV [1] = experiment: Antiviral effect of 22β-methoxyolean-12-ene-3β,24(4β)-diol and PEG-IFN in refractory chronic hepatitis C (NR case); blood HCV load by TaqMan PCR; assay type: in vivo, human; conditions: for Ratio of negativity achieved in blood HCV after 24 weeks from administrations: NR-case patients N=6; for Ratio of negativity achieved in blood HCV after 24 weeks from administrations (age) / Ratio of negativity achieved in blood HCV after 24 weeks from administrations (sex): NR case
Procedure: Subjects were the following patients (12 in total; 7 men, 5 women) who had been infected with genotype 1b HCV and had chronic hepatitis C and who were particularly considered to be highly refractory.
To these subject patients (NR case), a fine granule containing 25 mg or 400 mg of 22β-methoxyolean-12-ene-3β,24(4β)-diol was orally administered twice a day and 180 μg of PEG-IFN-α-2a (Pegasys: Roche Holding AG and Chugai Pharmaceutical Co., Ltd.) was subcutaneously administered per week. These administrations were continued for 24 weeks (hereinafter, the patients were referred to as a “50 mg/day administration group” or an “800 mg/day administration group”). The transitions of the blood HCV load and safety (clinical test value abnormality: blood hemoglobin value) before the administrations and up to 24 weeks were examined. The blood HCV load was measured using the TaqMan® PCR method, and the baseline of negativity was below 1.2 Log IU/mL.
The backgrounds of all the patients in the two administration groups are as follows. As for the sex, there were 7 men (58.3%) and 5 women […]. As for the age, the average age was 58.3, the youngest was 43 years old, and the oldest was 69 years old. With the baseline of 60 years old, there were 6 people who were under 60 years old (50.0%) and 6 people who were 60 years old or above (50.0%). The average blood HCV load of the patients before the administrations was 6.66 Log IU/mL with the minimum load of 5.30 Log IU/mL and the maximum load of 7.40 Log IU/mL. These exceeded the baseline, 5.00 Log IU/mL, of the high viral load, and all the patients were infected with genotype 1b.

genotype 1b HCV [2] = experiment: Antiviral effect of 22β-methoxyolean-12-ene-3β,24(4β)-diol and PEG-IFN in refractory chronic hepatitis C (LVR case); blood HCV load by TaqMan PCR; assay type: in vivo, human; conditions: for Ratio of negativity achieved in blood HCV after 12 weeks from administrations (age) / Ratio of negativity achieved in blood HCV after 12 weeks from administrations (sex): LVR case
Procedure: Subjects were 21 patients (9 men, 12 women) infected with genotype 1b HCV and having chronic hepatitis C. […] To these subject patients in a refractory chronic hepatitis C case, a fine granule containing 25 mg or 400 mg of […] was orally administered twice a day and 180 μg of PEG-IFN-α-2a (Pegasys: manufactured by Roche Holding AG and Chugai Pharmaceutical Co., Ltd.) was subcutaneously administered per week. […] The blood HCV load was measured using the TaqMan® PCR method, and the baseline of negativity was below 1.2 Log IU/mL.
The backgrounds of all the patients in the two administration groups are as follows. […] These exceeded the baseline, 5.00 Log IU/mL, of the high viral load, and all the patients were infected with genotype 1b.

HCV = conditions: without ribavirin; cited from earlier work
[3] = 60 years old or above, 50 mg/day with PEG-IFN-α-2a
[4] = 60 years old or above, 800 mg/day with PEG-IFN-α-2a
[5] = 60 years old or above, total of both doses with PEG-IFN-α-2a
[6] = Men, 50 mg/day with PEG-IFN-α-2a
[7] = Men, 800 mg/day with PEG-IFN-α-2a
[8] = Men, total of both doses with PEG-IFN-α-2a
[9] = Women, 50 mg/day with PEG-IFN-α-2a
[10] = Women, 800 mg/day with PEG-IFN-α-2a
[11] = Women, total of both doses with PEG-IFN-α-2a
[12] = under 60 years old, 50 mg/day with PEG-IFN-α-2a
[13] = under 60 years old, 800 mg/day with PEG-IFN-α-2a
[14] = under 60 years old, total of both doses with PEG-IFN-α-2a

For `CO[C@@H]1CC(C)(C)C[C@H]2C3=CC[C@@H]4[C@@]5(C)CC[C@H](O)[C@](C)(CO)[C@@H]5CC[C@@]4(C)[C@]3(C)CC[C@@]12C` [22β-methoxyolean-12-ene-3β,24(4β)-diol], the “Ratio of negativity achieved in blood HCV after 24 weeks from administrations” value (genotype 1b HCV [1]; 50 mg/day (25 mg orally twice a day) combined with PEG-IFN-α-2a 180 μg/week s.c., negativity below 1.2 Log IU/mL) was 50.0% (3/6), the “Ratio of negativity achieved in blood HCV after 24 weeks from administrations” value (genotype 1b HCV [1]; 800 mg/day (400 mg orally twice a day) combined with PEG-IFN-α-2a 180 μg/week s.c.) was 50.0% (3/6) and the “Ratio of negativity achieved in blood HCV after 24 weeks from administrations (age)” value (genotype 1b HCV [1]; [3]) was 50.0% (1/2). For the same molecule, the “Ratio of negativity achieved in blood HCV after 24 weeks from administrations (age)” value (genotype 1b HCV [1]; [4]) was 50.0% (2/4), the “Ratio of negativity achieved in blood HCV after 24 weeks from administrations (age)” value (genotype 1b HCV [1]; [5]) was 50.0% (3/6) and the “Ratio of negativity achieved in blood HCV after 24 weeks from administrations (sex)” value (genotype 1b HCV [1]; [6]) was 50.0% (2/4). The “Ratio of negativity achieved in blood HCV after 24 weeks from administrations (sex)” value (genotype 1b HCV [1]; [7]) was 33.3% (1/3), the “Ratio of negativity achieved in blood HCV after 24 weeks from administrations (sex)” value (genotype 1b HCV [1]; [8]) was 42.9% (3/7) and the “Ratio of negativity achieved in blood HCV after 24 weeks from administrations (sex)” value (genotype 1b HCV [1]; [9]) was 50.0% (1/2). For the same molecule, the “Ratio of negativity achieved in blood HCV after 24 weeks from administrations (sex)” value (genotype 1b HCV [1]; [10]) was 66.7% (2/3), the “Ratio of negativity achieved in blood HCV after 24 weeks from administrations (sex)” value (genotype 1b HCV [1]; [11]) was 60.0% (3/5) and the “Ratio of negativity achieved in blood HCV after 24 weeks from administrations (age)” value (genotype 1b HCV [1]; [12]) was 50.0% (2/4). The “Ratio of negativity achieved in blood HCV after 24 weeks from administrations (age)” value (genotype 1b HCV [1]; [13]) was 50.0% (1/2), the “Ratio of negativity achieved in blood HCV after 24 weeks from administrations (age)” value (genotype 1b HCV [1]; [14]) was 50.0% (3/6) and the “Ratio of negativity achieved in blood HCV after 12 weeks from administrations” value (genotype 1b HCV [2]; 50 mg/day (25 mg orally twice a day) combined with PEG-IFN-α-2a 180 μg/week s.c., LVR-case patients N=11, negativity below 1.2 Log IU/mL) was 63.6% (7/11). The “Ratio of negativity achieved in blood HCV after 12 weeks from administrations” value (genotype 1b HCV [2]; 800 mg/day (400 mg orally twice a day) combined with PEG-IFN-α-2a 180 μg/week s.c., LVR-case patients N=10) was 50.0% (5/10), the “Ratio of negativity achieved in blood HCV after 12 weeks from administrations (age)” value (genotype 1b HCV [2]; [3]) was 75.0% (6/8) and the “Ratio of negativity achieved in blood HCV after 12 weeks from administrations (age)” value (genotype 1b HCV [2]; [4]) was 25.0% (1/4). For the same molecule, the “Ratio of negativity achieved in blood HCV after 12 weeks from administrations (age)” value (genotype 1b HCV [2]; [5]) was 58.3% (7/12), the “Ratio of negativity achieved in blood HCV after 12 weeks from administrations (sex)” value (genotype 1b HCV [2]; [6]) was 60.0% (3/5) and the “Ratio of negativity achieved in blood HCV after 12 weeks from administrations (sex)” value (genotype 1b HCV [2]; [7]) was 50.0% (2/4). For the same molecule, the “Ratio of negativity achieved in blood HCV after 12 weeks from administrations (sex)” value (genotype 1b HCV [2]; [8]) was 55.6% (5/9), the “Ratio of negativity achieved in blood HCV after 12 weeks from administrations (sex)” value (genotype 1b HCV [2]; [9]) was 66.7% (4/6) and the “Ratio of negativity achieved in blood HCV after 12 weeks from administrations (sex)” value (genotype 1b HCV [2]; [10]) was 50.0% (3/6). For the same molecule, the “Ratio of negativity achieved in blood HCV after 12 weeks from administrations (sex)” value (genotype 1b HCV [2]; [11]) was 58.3% (7/12), the “Blood HCV load continued to be negative for 48 weeks of the administration period” value (genotype 1b HCV [2]; patients negative by 12 weeks whose administrations (25 or 400 mg twice a day with PEG-IFN-α-2a 180 μg/week) were continued up to 48 weeks) was “two out of three patients” and the “Relapse after the non-treatment period of subsequent 24 weeks” value (genotype 1b HCV [2]; the patients negative through 48 weeks of administration with PEG-IFN-α-2a, complete recovery was achieved) was “no relapse occurred”. The “Ratio of negativity achieved in blood HCV after 12 weeks from administrations (age)” value (genotype 1b HCV [2]; [12]) was 33.3% (1/3), the “Ratio of negativity achieved in blood HCV after 12 weeks from administrations (age)” value (genotype 1b HCV [2]; [13]) was 66.7% (4/6) and the “Ratio of negativity achieved in blood HCV after 12 weeks from administrations (age)” value (genotype 1b HCV [2]; [14]) was 55.6% (5/9). The “Anti-HCV activity in combination with an IFN” value (HCV) was “synergistic anti-HCV activity”.
